What all share (assay type): cell-based, human
Test [1] concerns EZH2 Tyr487. Put plainly: Western blot of EZH2 phosphorylation. To be noted: 3 μM YC-1. As for the experimental part: (A) MDA-MB-468 cells were incubated with 3 μM YC-1 for indicated time. Cells were harvested for the detection of phospho-Akt (Ser473), Akt, and PCNA. (B) Cells were pretreated with LY294002 (LY, 10 μM) for 1 h followed by 3 μM YC-1 induction for 6 h. (C) MDA-MB-468 cells were incubated with 3 μM YC-1 for indicated time. Cells were harvested for the detection of phospho-CDK1 (Thr161), CDK1, phospho-EZH2 ([…]), EZH2, and β-actin expression with western blot analysis. Levels of EZH2 phosphorylation were calculated by phospho-EZH2 normalized by total EZH2. (D) Cells were treated with YC-1 for 6 h in the absence or presence of roscovitine (Rosc, 20 μM). Cells were harvested and analyzed by western blotting for protein expression. (E) CDK1 knockdown of MDA-MB-468 cells were induced with 3 μM YC-1 for 4 h and followed by western blot analysis.
Cells were lysed in PBS containing proteinase inhibitor and phosphatase inhibitors and sonication. Protein concentration was measured using the Bio-Rad protein assay kit (Bio-Rad Laboratories, Hercules, Calif., USA). Lysate protein was separated by electrophoresis of SDS-PAGE and transferred to Immobilon P membrane (EMD Millipore). […] The band intensities were analyzed and quantified by the Multi Gauge software (Fuji Photo Film).
(In western blotting, separated proteins are transferred to a membrane and probed.)

The test system of test [2] is ERK. Put plainly: Western blot of ERK phosphorylation in MDA-MB-468 cells. The conditions noted are these: 3 μM YC-1; beginning at 2 h, maximal at 6 h. As for the experimental part: (A) Cells were pretreated with KT5720 (3 μM), KT5823 (3 μM), NS2028 (30 μM), or ODQ (30 μM) and then stimulated with YC-1 (3 μM) for 6 h. Cells were collected for measurement of protein expression (left) or cell viability (middle). After 3 days of PKA knockdown, cells were induced with 3 μM YC-1 for 4 h. Cells were harvested and analyzed using western blotting (right). The levels of protein expression were quantitated and shown under blots. […] Cells were collected and analyzed protein expression (left) and cells viability (middle). p44/42 MAPK knockdown cells were treated with 3 μM YC-1 for 4 h and then detected protein expression (left). (C) Cells were treated with 3 μM YC-1 for indicated time. Cells were harvested for detection of protein phosphorylated activation. […] Six hours later, cells were harvested for EZH2 ubiquitination assay. (E) Cells were induced by 3 μM YC-1 for 6 h in the presence of PD98059 or KT5720. Cells were collected for the determination of ERK phosphorylation. Cells were lysed in PBS containing proteinase inhibitor and phosphatase inhibitors and sonication. Protein concentration was measured using the Bio-Rad protein assay kit (Bio-Rad Laboratories, Hercules, Calif., USA). […] The band intensities were analyzed and quantified by the Multi Gauge software (Fuji Photo Film).

The test system of test [3] is EED. Put plainly: Western blot of PRC2 protein expression in MDA-MB-468 cells. To be noted: 24 h. As for the experimental part:
(§1) (A)(B) Cells were treated with indicated concentration of YC-1 for 24 h (A) or 3 μM of YC-1 for indicated time (B). Cells were harvested and performed with western blotting analysis. […] The levels of protein expression were quantitated and shown under blots. (C) Cells were transfected with EZH2 shRNA for 0, 1, 2, 3, and 4 days and collected for determination of cell viability (left) and protein expression (right). (D)(E) After 4 days of EZH2 knockdown, cells were incubated with 3 μM YC-1 for 4 h and detected cell viability (D) and protein contents (E). (F) Tumor specimens were isolated and protein was extracted for western blot analysis.
(§2) Cells were lysed in PBS containing proteinase inhibitor and phosphatase inhibitors and sonication. Protein concentration was measured using the Bio-Rad protein assay kit (Bio-Rad Laboratories, Hercules, Calif., USA). Lysate protein was separated by electrophoresis of SDS-PAGE and transferred to Immobilon P membrane (EMD Millipore). The membranes were incubated with appropriate primary antibodies and horseradish peroxidase-conjugated secondary antibodies (EMD Millipore). The signaling was visualized using Chemiluminescence substrate kit (EMD Millipore) and collected by the Luminesence image analyzer, LAS4000 (Fuji Photo Film Co., Tokyo, Japan). The band intensities were analyzed and quantified by the Multi Gauge software (Fuji Photo Film).

The test system of test [4] is RbAp48. Described as above. The conditions noted are these: 24 h. As for the experimental part: as §1, §2
Test [5] has as its system SUZ12. The description is as above. To be noted: 24 h. As for the experimental part:
as §1, §2

For `OCc1ccc(-c2nn(Cc3ccccc3)c3ccccc23)o1` [YC-1, 3-(5′-hydroxymethyl-2′-furyl)-1-benzyl indazole], the “phosphorylation of EZH2 Tyr487” value in test [1] is on record as “no effect”. Further, in test [2], the “phosphorylated activation of ERK” value is “rapid phosphorylated activation”. In addition, the EED protein expression entry in test [3] is reported as “no effect”. In test [4], the RbAp48 protein expression result is “effectively concentration-dependent suppression”. Moreover, the SUZ12 protein expression result in test [5] is recorded as “effectively concentration-dependent suppression”.

Source of the values: patent publication US20140357688A1, “METHOD FOR INHIBITING EZH2 EXPRESSION IN BREAST CANCER CELLS” (Yung Shin Pharm. Ind. Co., Ltd., priority 2013, published 2014).
